Assay results taken from paper PMC10279527, “Structural basis of metabolite transport by the chloroplast outer envelope channel OEP21” (Nature Structural & Molecular Biology, 2023).
Values joined by “and” are separate entries in the source; they are usually repeats but may differ in a detail not shown here. Equal values may be shown once.

Assays:
OEP21 wt [1] = target: T1, OEP21 wt (Pisum sativum, UniProt Q9SM57); assay: Fluorescence polarization (FP) binding of MANT-ATP (or MANT-GMPPNP) to OEP21-WT, also at varied NaCl and MgCl2; parameters: species or system garden pea
T1 construct: made in house
Protocol: (§1) FP assays were performed on a spectrofluorometer FP-8300 (Jasco) equipped with a water bath cooling system MCM-100 (Jasco). […] A buffer containing no EDTA was used when MgCl2 was present. […] KD values were derived by fitting the data to a one-site binding model. […] All FP experiments were performed as triplicates.

OEP21 [2] = target: T2, OEP21 (Pisum sativum, UniProt Q9SM57); assay: Trypsin cleavage of recombinant OEP21 in liposomes; parameters: made in house; species or system garden pea; settings: 10 µM OEP21 in liposomes; 5 mM metabolite
Protocol: Sample aliquots were quenched by addition of 1 mM PMSF at the indicated time points and were analyzed by SDS–PAGE.

OEP21 [3] = target: T2, OEP21; settings: Cu^2+ oxidation then BS^3; 5 mM metabolite
OmpX = OmpX (Escherichia coli, UniProt P0A917); assay: 2D NMR control with OmpX in LDAO micelles; parameters: species or system bacterial; settings: up to 5 mM GAP; control for nonspecific binding
Protocol: (§2) (a) (left) 2D-[^15N,^1H]-TROSY NMR spectra of 400 µM ^2H,^15N-labeled OmpX in LDAO micelles in 20 mM sodium phosphate, pH6.0, 50 mM NaCl, 0.5 mM EDTA and the indicated concentrations of D-GAP at 30 °C and 1.2 GHz magnetic field. (right) 2D-projections along the ^1H dimension of the 2D-spectra shown on (left). […] (right) Relative NMR peak intensities derived from the data in (left) and (middle). Buffer: 10 mM Na-phosphate pH7.0, 20 mM NaCl, 7% (v/v) D2O. […] (right) 150 mM MgCl2 was titrated into 15 mM potassium phosphate (Pi). Buffer conditions for all experiments were: 10 mM HEPES pH7.0, 20 mM NaCl.

[4] = ITC of ATP, GAP or phosphate with magnesium; type: binding; settings: 10 mM HEPES pH7.0, 20 mM NaCl, read-out: KD for Mg^2+
Protocol: ITC experiments were performed with a MicroCal PEAQ-ITC instrument (Malvern Panalytical) at 25 °C in 10 mM HEPES pH 7.0, 20 mM NaCl, 0.5 mM EDTA, 1 mM DTT, 50 mM LDAO. […] Curve fitting and data analysis were done with the Malvern PEAQ-ITC software.
as §2

OEP21 wt [5] = target: T1, OEP21 wt; assay: FP competition with preformed MANT-ATP/OEP21-WT complex; type: binding, garden pea
Protocol: as §1

OEP21 wt [6] = target: T1, OEP21 wt; assay: NMR titrations (2D-[15N,1H]-TROSY) of OEP21 with metabolites; type: binding, garden pea
OEP21ΔL5 = target: T3, OEP21ΔL5 (Pisum sativum, UniProt Q9SM57, DEL70-80); assay: NMR titrations of OEP21ΔL5 with metabolites; type: binding, garden pea; settings: for Kd: KDs dLoop + GAP, dLoop (OEP21ΔL5), unit inferred
T3 construct: made in house; host or cells: Escherichia coli BL21(DE3) (described for OEP21)

OEP21 wt [7] = target: T1, OEP21 wt; assay: SEC metabolite translocation assay with OEP21 WT proteoliposomes;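 as to all read-outs here: control is liposomes reconstituted without protein, prepared alongside. Molecule content inside liposomes measured after Triton X-100 disruption. PD10 SEC runs done with or without ATP and/or MgCl2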; type: biochemical, garden pea; settings: for Relative content (% of mean Control): Fig. 4f, WT proteoliposomes, molecules of increasing molecular weight

Q: Which results are given for “2′-(or-3′)-O-(N-methylanthraniloyl) adenosine 5′-triphosphate [Mant-ATP]”?
A: Kd (OEP21 wt [1]; MgCl2 0 mM, individual determinations, read-out: KD1-KD3): 184 nM and 169 nM and 193 nM; Kd (OEP21 wt [1]; MgCl2 0 mM, read-out: mean KD): 182 nM; rel KD1-KD3 (OEP21 wt [1]; MgCl2 0 mM, relative to mean KD at 0 mM MgCl2): 1.011 and 0.9286 and 1.06; Kd (OEP21 wt [1]; MgCl2 1 mM, individual determinations, read-out: KD1-KD3): 442 nM and 659 nM and 1020 nM; Kd (OEP21 wt [1]; MgCl2 1 mM, read-out: mean KD): 706 nM; Kd (OEP21 wt [1]; MgCl2 10 mM, individual determinations, read-out: KD1-KD3): 1170 nM and 2680 nM and 2400 nM; Kd (OEP21 wt [1]; MgCl2 10 mM, read-out: mean KD): 2080 nM; Kd (OEP21 wt [1]; MgCl2 50 mM, individual determinations, read-out: KD1-KD3): 6430 nM and 8880 nM and 8630 nM; Kd (OEP21 wt [1]; MgCl2 50 mM, read-out: mean KD): 7980 nM; rel KD1-KD3 (OEP21 wt [1]; MgCl2 50 mM, relative to mean KD at 0 mM MgCl2): 35.3077 and 48.8077 and 47.4286; Kd (OEP21 wt [1]; NaCl 0 M, individual determinations, nM printed only in the MgCl2 head (r11) of this sheet, read-out: KD1-KD3): 184 nM and 169 nM and 193 nM; Kd (OEP21 wt [1]; NaCl 0 M, read-out: mean KD): 182 nM; rel KD1-KD3 (OEP21 wt [1]; NaCl 0 M, relative to mean KD at 0 M NaCl): 1.011 and 0.9286 and 1.06; Kd (OEP21 wt [1]; NaCl 0.5 M, individual determinations, nM, read-out: KD1-KD3): 241 nM and 192 nM and 264 nM; Kd (OEP21 wt [1]; NaCl 0.5 M, read-out: mean KD): 232 nM; rel KD1-KD3 (OEP21 wt [1]; NaCl 0.5 M, relative to mean KD at 0 M NaCl): 1.324 and 1.055 and 1.451; Kd (OEP21 wt [1]; NaCl 1 M, individual determinations, nM, read-out: KD1-KD3): 2600 nM and 2460 nM and 3130 nM; Kd (OEP21 wt [1]; NaCl 1 M, read-out: mean KD): 2730 nM; rel KD1-KD3 (OEP21 wt [1]; NaCl 1 M, relative to mean KD at 0 M NaCl): 14.2912 and 13.5385 and 17.1923; Kd (OEP21 wt [1]; NaCl 2 M, individual determinations, nM, read-out: KD1-KD3): 18.4 µM and 21.4 µM (2×); Kd (OEP21 wt [1]; NaCl 2 M, read-out: mean KD): 20400 nM; rel KD1-KD3 (OEP21 wt [1]; NaCl 2 M, relative to mean KD at 0 M NaCl): 101.319 and 117.56 and 117.418; Kd (OEP21 wt [1]; OEP21 wt, individual determinations, unit inferred, read-out: KD1-KD3): 184 nM and 169 nM and 193 nM; rel KD1-KD3 (OEP21 wt [1]; OEP21 wt, relative to mean KD of wt): 1.011 and 0.9286 and 1.06; Kd (OEP21 wt [1]; OEP21 wt, unit inferred, read-out: mean KD): 182 nM

Q: With `O=C[C@H](O)COP(=O)(O)O` [GAP, D-glyceraldehyde-3-phosphate] as the compound, how does the “effect on trypsin digestion of L5 (in words)” value (OEP21 [2]) read?
A: The value was “slightly protected L5 from proteolytic digestion”.

Q: And the “effect on enhanced oligomerization of Cys109-oxidized OEP21 (in words)” value (OEP21 [3])?
A: Its value is “reduced this process”.

Q: What about the “effect on 2D-NMR spectra of OmpX (in words)” value (OmpX) of the same compound?
A: The value was “did not observe any effect”.

Q: What about the Kd [4] of the same compound?
A: The Kd was ~9000 µM and 9000 µM.

Q: What about the IC50 (OEP21 wt [5]; IC50 (dissociation of MANT-ATP), OEP21-WT, 1 µM MANT-ATP, 1 µM protein) of the same compound?
A: The IC50 was ~10000 µM.

Q: What about the IC50 (OEP21 wt [5]; IC50, wt, individual determinations) of the same compound?
A: The IC50 was 11000 µM and 10700 µM.

Q: And the IC50 (OEP21 wt [5]; mean IC50, wt)?
A: Its IC50 is 10900 µM.

Q: What about the Kd (OEP21 wt [6]; KD GAP - Loop5, Loop5, individual KDs) of the same compound?
A: The Kd was 2700 µM and 4360 µM and 2480 µM.

Q: What about the Kd (OEP21 wt [6]; KD GAP - Loop5, Mean, Loop5, mean) of the same compound?
A: Its Kd is 3180 µM.

Q: And the Kd (OEP21 wt [6]; KD, NMR, Fig. 3b)?
A: The Kd was ~150 µM.

Q: And the Kd (OEP21 wt [6]; KDs GAP+Mg, Mean, with Mg, mean)?
A: Its Kd is 709 µM.

Q: What about the Kd (OEP21 wt [6]; KDs GAP+Mg, with Mg, individual KDs) of the same compound?
A: The Kd was 310 µM and 690 µM and 450 µM and 960 µM and 920 µM and 1170 µM and 470 µM and 980 µM and 750 µM and 710 µM and 670 µM.

Q: What about the Kd (OEP21 wt [6]; KDs OEP21wt + GAP, Mean, OEP21wt, mean, unit inferred) of the same compound?
A: The Kd was 152 µM.

Q: What about the Kd (OEP21 wt [6]; KDs OEP21wt + GAP, OEP21wt, individual KDs, unit inferred) of the same compound?
A: The Kd was 154 µM and 180 µM and 186 µM and 146 µM and 177 µM and 143 µM and 138 µM and 137 µM and 127 µM and 149 µM.

Q: And the “effect of Mg^2+ on binding affinity (in words)” value (OEP21 wt [6]; NMR, Fig. 3h, addition of Mg^2+)?
A: Its value is “decreased the binding affinity to a similar extent”.

Q: And the Kd (OEP21 wt [6]; affinity of residues in L5, NMR, Fig. 3h)?
A: Its Kd is ~3000 µM.

Q: And the “fold increase in Kd” value (OEP21 wt [6]; individual determinations KD1-KD12, relative to ATP pH7)?
A: The value was 18.8725 and 22.0588 and 22.7941 and 17.8922 and 21.6912 and 17.5245 and 16.9118 and 16.7892 and 15.5637 and 18.2598.

Q: What about the “fold increase in Kd, mean values” (OEP21 wt [6]; mean, relative to ATP pH7) of the same compound?
A: The value was 18.7.

Q: And the Kd (OEP21ΔL5; Mean, mean)?
A: The Kd was 730 µM.

Q: And the Kd (OEP21ΔL5; individual KDs)?
A: The Kd was 702 µM and 649 µM and 747 µM and 728 µM and 616 µM and 657 µM and 634 µM and 730 µM and 906 µM and 897 µM and 764 µM.

Q: What about the “effect of L5 on binding affinity (in words)” value (OEP21ΔL5; NMR, Fig. 3h, OEP21 versus OEP21ΔL5) of the same compound?
A: Its value is “approximately a fourfold increase in binding affinity”.

Q: And the “Relative GAP content (% of mean Control)” value (OEP21 wt [7]; ED Fig. 10a, WT 0.05uM, Mean)?
A: Its value is 95.6446 % of mean Control.

Q: What about the “Relative GAP content (% of mean Control)” value (OEP21 wt [7]; ED Fig. 10a, WT 0.5uM, Mean) of the same compound?
A: The value was 62.4352 % of mean Control.

Q: And the “Relative GAP content (% of mean Control)” value (OEP21 wt [7]; ED Fig. 10a, WT 5uM, Mean)?
A: Its value is 38.701 % of mean Control.

Q: What about the “Relative GAP content (% of mean Control)” value (OEP21 wt [7]; ED Fig. 10b, +ATP (2 mM per legend), OEP21 0.05uM, Mean) of the same compound?
A: The value was 91.3817 % of mean Control.

Q: And the “Relative GAP content (% of mean Control)” value (OEP21 wt [7]; ED Fig. 10b, +ATP (2 mM per legend), OEP21 0.5uM, Mean)?
A: Its value is 64.3295 % of mean Control.

Q: And the “Relative GAP content (% of mean Control)” value (OEP21 wt [7]; ED Fig. 10b, +ATP (2 mM per legend), OEP21 5uM, Mean)?
A: The value was 54.5372 % of mean Control.

Q: And the “Relative GAP content (% of mean Control)” value (OEP21 wt [7]; ED Fig. 10c, WT, 0.05M NaCl, Mean)?
A: Its value is 38.1976 % of mean Control.

Q: What about the “Relative GAP content (% of mean Control)” value (OEP21 wt [7]; ED Fig. 10c, WT, 1M NaCl, Mean) of the same compound?
A: The value was 59.8192 % of mean Control.

Q: What about the “Relative GAP content (% of mean Control)” value (OEP21 wt [7]; ED Fig. 10c, WT, […] NaCl, Mean) of the same compound?
A: The value was 46.186 % of mean Control.

Q: What about the “Relative content (% of mean Control)” value (OEP21 wt [7]; Mean) of the same compound?
A: The value was 48.3557 % of mean Control.

Q: And the “Relative content (% of mean Control)” value (OEP21 wt [7]; single replicates)?
A: Its value is 46.601 % of mean Control and 48.0754 % of mean Control and 50.3906 % of mean Control.

Q: And the “Relative GAP content (% of mean Control)” value (OEP21 wt [7]; Fig. 4d, WT, 5mM ATP, Mean)?
A: Its value is 40.9262 % of mean Control.

Q: What about the “Relative GAP content (% of mean Control)” value (OEP21 wt [7]; Fig. 4d, WT, 10mM MgCl2+5mM ATP, Mean) of the same compound?
A: Its value is 54.2808 % of mean Control.

Q: And the “Relative GAP content (% of mean Control)” value (OEP21 wt [7]; Fig. 4d, WT, 10mM MgCl2, Mean)?
A: The value was 63.8331 % of mean Control.

Q: And the “passage through the OEP21 channel (in words)” value (OEP21 wt [7]; proteoliposomes, SEC, deadtime ~4 min)?
A: The value was “passed through the channel”.
